Laboratory results as given in US20180244895A1, “ANTIMICROBIAL AND ANTIVIRAL COMPOSITE POLYMER SURFACES” (YEDITEPE UNIVERSITESI, priority 2015, published 2018).
Like-named read-outs stand apart in the source and are kept apart here.

Key:
[1] = tested on: humanrhinovirus, coxsackievirus and mengovirus; conditions: binds with ions of metals such as zinc; cited from earlier work
[2] = tested on: Vancomycin-resistant Enterococcus (VRE); assay: Modified disc diffusion method, boron compounds; format: cell-based; design: key: + sign indicates that the boron compounds had antimicrobial activity.; − sign indicates that there is no antimicrobial activity; conditions: disc immersed in pulverized compound; 36±1° C., 24 hours
[3] = tested on: Methicillin-resistant Staphylococcus aureus (MRSA); assay: Modified disc diffusion method, boron compounds; format: cell-based; design: key: + sign indicates that the boron compounds had antimicrobial activity.; − sign indicates that there is no antimicrobial activity; conditions: disc immersed in pulverized compound; 36±1° C., 24 hours
Escherichia coli = assay: Modified disc diffusion method, boron compounds; format: cell-based; design: key: + sign indicates that the boron compounds had antimicrobial activity.; − sign indicates that there is no antimicrobial activity; conditions: disc immersed in pulverized compound; 36±1° C., 24 hours
Staphylococcus aureus = assay: Modified disc diffusion method, boron compounds; format: cell-based; design: key: + sign indicates that the boron compounds had antimicrobial activity.; − sign indicates that there is no antimicrobial activity; conditions: disc immersed in pulverized compound; 36±1° C., 24 hours
Pseudomonas aeruginosa = assay: Modified disc diffusion method, boron compounds; format: cell-based; design: key: + sign indicates that the boron compounds had antimicrobial activity.; − sign indicates that there is no antimicrobial activity; conditions: disc immersed in pulverized compound; 36±1° C., 24 hours
Candida albicans = assay: Modified disc diffusion method, boron compounds; format: cell-based; design: key: + sign indicates that the boron compounds had antimicrobial activity.; − sign indicates that there is no antimicrobial activity; conditions: disc immersed in pulverized compound; 36±1° C., 48 hours
Candida glabrata = assay: Modified disc diffusion method, boron compounds; format: cell-based; design: key: + sign indicates that the boron compounds had antimicrobial activity.; − sign indicates that there is no antimicrobial activity; conditions: disc immersed in pulverized compound; 36±1° C., 48 hours
Aspergillus spp. = assay: Modified disc diffusion method, boron compounds; format: cell-based; design: key: + sign indicates that the boron compounds had antimicrobial activity.; − sign indicates that there is no antimicrobial activity; conditions: disc immersed in pulverized compound; 25±1° C., 72 hours
Fusarium oxysporum = assay: Modified disc diffusion method, boron compounds; format: cell-based; design: key: + sign indicates that the boron compounds had antimicrobial activity.; − sign indicates that there is no antimicrobial activity; conditions: disc immersed in pulverized compound; 25±1° C., 72 hours
Botrytis cinerea = assay: Modified disc diffusion method, boron compounds; format: cell-based; design: key: + sign indicates that the boron compounds had antimicrobial activity.; − sign indicates that there is no antimicrobial activity; conditions: disc immersed in pulverized compound; 25±1° C., 72 hours
Penicillium spp. = assay: Modified disc diffusion method, boron compounds; format: cell-based; design: key: + sign indicates that the boron compounds had antimicrobial activity.; − sign indicates that there is no antimicrobial activity; conditions: disc immersed in pulverized compound; 25±1° C., 72 hours
[4] = tested on: Human adenovirus type 5 Adenoid 75 strain; format: cell-based
[5] = tested on: poliovirus type 1 Chat strain; format: cell-based
Herpesvirus hominis = conditions: 0.02% chlorhexidine gluconate, 90-minute exposure at room temperature; cited from earlier work
poliovirus = conditions: 0.02% chlorhexidine gluconate, 90-minute exposure at room temperature; cited from earlier work
adenovirus = conditions: 0.02% chlorhexidine gluconate, 90-minute exposure at room temperature; cited from earlier work
[6] = tested on: various bacterial strains; conditions: 0.02% chlorhexidine solution, 10-minute exposure; cited from earlier work
[7] = tested on: P. aeruginosa NCIMB 10548; conditions: cited from earlier work
E. coli NCIMB 10000 = conditions: cited from earlier work
Pityrosporum ovale = conditions: cited from earlier work
[8] = tested on: Saccharomyces cerevisiae yeast; conditions: cited from earlier work
enteric bacteria = conditions: cited from earlier work
[9] = ingestion of 30 mg twice daily for three weeks; cited from earlier work
[10] = 60 minutes, clean medium, 20° C.

Row | Molecule | Antimicrobial activity (inhibition zone) [2] | Antimicrobial activity (inhibition zone) [3] | Antimicrobial activity (inhibition zone) (Escherichia coli) | Antimicrobial activity (inhibition zone) (Staphylococcus aureus) | Antimicrobial activity (inhibition zone) (Pseudomonas aeruginosa) | Antimicrobial activity (inhibition zone) (Candida albicans) | Antimicrobial activity (inhibition zone) (Candida glabrata) | Antimicrobial activity (inhibition zone) (Aspergillus spp.) | Antimicrobial activity (inhibition zone) (Fusarium oxysporum) | Antimicrobial activity (inhibition zone) (Botrytis cinerea) | Antimicrobial activity (inhibition zone) (Penicillium spp.) | also measured
1 | CC(C)c1cccc(=O)c(O)c1 [hinokitiol] | – | – | – | – | – | – | – | – | – | – | – | inhibition of virus proliferation [1]: inhibited proliferation
2 | Zinc borate [ZB] | + | + | + | + | + | + | + | + | + | + | + | –
3 | N=C(NCCCCCCNC(=N)NC(=N)Nc1ccc(Cl)cc1)NC(=N)Nc1ccc(Cl)cc1.O=C(O)[C@H](O)[C@@H](O)[C@H](O)[C@H](O)CO.O=C(O)[C@H](O)[C@@H](O)[C@H](O)[C@H](O)CO [Chlorhexidine Gluconate, Chlorhexidine gluconate] | – | – | – | – | – | – | – | – | – | – | – | Reduction ratio in virus titer [4]: 4.0 Logarithmic TCID50 ratio; Virus titer with disinfectant [4]: 1.5 Logarithmic TCID50; reduction in virus titer [4]: at least 4 log; Reduction ratio in virus titer ([4]; 1 minute, clean medium, 20° C.): 4.0 Logarithmic TCID50 ratio; Virus titer with disinfectant ([4]; 1 minute, clean medium, 20° C.): 1.5 Logarithmic TCID50; Reduction ratio in virus titer [4, 10]: 4.0 Logarithmic TCID50 ratio; Virus titer with disinfectant [4, 10]: 1.5 Logarithmic TCID50; active against virus ([4]; used directly without being diluted, 20° C., 1 and 60 minute application periods): 99.9%; Virus titer with disinfectant [5]: 2.0 Logarithmic TCID50; reduction in virus titer [5]: at least 4 log; reduction of virus titration (Herpesvirus hominis): more than 99%; activity against virus (poliovirus): ineffective; activity against virus (adenovirus): ineffective
4 | O.O.O.O.[Na+].[O-]B1OO1 [SPT, Sodium perborate tetrahydrate] | + | + | + | + | + | + | + | + | + | + | + | –
5 | O.O.O.O.O.[Na+].[Na+].[O-]B1OB2OB([O-])OB(O1)O2 [BP, Borax pentahydrate] | + | + | + | + | + | + | + | + | + | + | + | –
6 | O.O.O.O.O=BOB1OB(OB=O)OB2OB([O-])OB([O-])OB(O1)O2.[Na+].[Na+] [DOT, Disodium octaborate tetrahydrate] | + | + | + | + | + | + | + | + | + | + | + | –
7 | [H]/N=C(\N/C(=N/[H])NCCCCCCNC(=N)NC(=N)Nc1ccc(Cl)cc1)Nc1ccc(Cl)cc1 [chlorhexidine] | – | – | – | – | – | – | – | – | – | – | – | inhibition of microorganisms [6]: 4 log
8 | Zinc pyrithione | – | – | – | – | – | – | – | – | – | – | – | Reduction ratio in virus titer [4]: 4.0 Logarithmic TCID50 ratio; Virus titer with disinfectant [4]: 1.0 Logarithmic TCID50; active against virus [4]: 99.9%; reduction in virus titer [4]: at least 4 log; Reduction ratio in virus titer [5]: 4.5 Logarithmic TCID50 ratio; Virus titer with disinfectant [5]: 1.5 Logarithmic TCID50; reduction in virus titer [5]: at least 4 log; MIC value [7]: 13 µg/mL; MIC value (E. coli NCIMB 10000): 4.5 µg/mL; antifungal activity (Pityrosporum ovale): has antifungal activity; antiyeast activity [8]: has antiyeast activity
9 | OB(O)O [boric acid] | – | – | – | – | – | – | – | – | – | – | – | antibacterial activity (enteric bacteria): has antibacterial activity
10 | O.O.O.O.O.O.O.O.O.O.[Na+].[Na+].[O-]B1OB2OB([O-])OB(O1)O2 [SB, Sodium Borate] | + | + | + | + | + | + | + | + | + | + | + | –
11 | O=BOB(O)OB(O)OB=O [borax, borax (Na2B4O7 10 H2O)] | – | – | – | – | – | – | – | – | – | – | – | effect on rheumatism [9]: substantially alleviated rheumatism
